Data published in paper PMC9516332 (Frontiers in Oncology, 2022).
Read-outs that look alike come from different tables or passages of the source.

Tested on: 134 cancer cell lines
Assay: Cell viability assay (ATPlite, 72 hours), IC50 on cancer cell line panel
[1] = Homo sapiens, A204, read-out: IC50 in cell proliferation assay
[2] = Homo sapiens, Kasumi 1, read-out: IC50 in cell proliferation assay
[3] = Homo sapiens, MDA-MB-453, read-out: IC50 in cell proliferation assay
[4] = Homo sapiens, MOLM-13, read-out: IC50 in cell proliferation assay
[5] = Homo sapiens, MV4-11, read-out: IC50 in cell proliferation assay
[6] = Homo sapiens, SK-N-SH, read-out: IC50 in cell proliferation assay

C=CC(=O)N1CCC[C@@H](n2nc(-c3ccc(Oc4ccccc4)cc3)c3c(N)ncnc32)C1 [ibrutinib]
IC50 (Homo sapiens, 769-P, read-out: IC50 in cell proliferation assay): 0.624 µM
IC50 (Homo sapiens, 786-0, read-out: IC50 in cell proliferation assay): 0.447 µM
IC50 [1]: 29.2 µM
IC50 (Homo sapiens, A498, read-out: IC50 in cell proliferation assay): 10.1 µM
IC50 (Homo sapiens, A-427, read-out: IC50 in cell proliferation assay): 7.61 µM
IC50 (Homo sapiens, ACHN, read-out: IC50 in cell proliferation assay): 0.675 µM
IC50 (Homo sapiens, AN3-CA, read-out: IC50 in cell proliferation assay): 12.7 µM
IC50 (Homo sapiens, AU565, read-out: IC50 in cell proliferation assay): 0.042 µM
IC50 (Homo sapiens, BT-474, read-out: IC50 in cell proliferation assay): 0.028 µM
IC50 (Homo sapiens, BT-549, read-out: IC50 in cell proliferation assay): 17.5 µM
IC50 (Homo sapiens, BXPC-3, read-out: IC50 in cell proliferation assay): 1.41 µM
IC50 (Homo sapiens, C-33-A, read-out: IC50 in cell proliferation assay): 0.046 µM
IC50 (Homo sapiens, CAL-27, read-out: IC50 in cell proliferation assay): 0.374 µM
IC50 (Homo sapiens, CCRF-CEM, read-out: IC50 in cell proliferation assay): 8.44 µM
IC50 (Homo sapiens, DU-145, read-out: IC50 in cell proliferation assay): 0.148 µM
IC50 (Homo sapiens, DU-4475, read-out: IC50 in cell proliferation assay): 20.1 µM
IC50 (Homo sapiens, Daoy, read-out: IC50 in cell proliferation assay): 23.1 µM
IC50 (Homo sapiens, DoTc2-4510, read-out: IC50 in cell proliferation assay): 0.209 µM
IC50 (Homo sapiens, EOL1, read-out: IC50 in cell proliferation assay): 0.347 µM
IC50 (Homo sapiens, FaDu, read-out: IC50 in cell proliferation assay): 0.095 µM
IC50 (Homo sapiens, HCC827, read-out: IC50 in cell proliferation assay): 0.236 µM
IC50 (Homo sapiens, HCT-116, read-out: IC50 in cell proliferation assay): 26.4 µM
IC50 (Homo sapiens, HEC-1B, read-out: IC50 in cell proliferation assay): 0.294 µM
IC50 (Homo sapiens, HL-60, read-out: IC50 in cell proliferation assay): 29.7 µM
IC50 (Homo sapiens, HT, read-out: IC50 in cell proliferation assay): 0.902 µM
IC50 (Homo sapiens, Hs-578T, read-out: IC50 in cell proliferation assay): 15.1 µM
IC50 (Homo sapiens, HuTu80, read-out: IC50 in cell proliferation assay): 3.66 µM
IC50 (Homo sapiens, J82, read-out: IC50 in cell proliferation assay): 25.5 µM
IC50 (Homo sapiens, Jurkat E6.1, read-out: IC50 in cell proliferation assay): 10.8 µM
IC50 (Homo sapiens, K562, read-out: IC50 in cell proliferation assay): 7.32 µM
IC50 (Homo sapiens, KATO III, read-out: IC50 in cell proliferation assay): 1.04 µM
IC50 (Homo sapiens, KG-1, read-out: IC50 in cell proliferation assay): 1.35 µM
IC50 (Homo sapiens, KLE, read-out: IC50 in cell proliferation assay): 0.075 µM
IC50 (Homo sapiens, KMS-11, read-out: IC50 in cell proliferation assay): 27.9 µM
IC50 (Homo sapiens, KU812, read-out: IC50 in cell proliferation assay): 2.81 µM
IC50 [2]: 7.92 µM
IC50 (Homo sapiens, LC-2-ad, read-out: IC50 in cell proliferation assay): 1.83 µM
IC50 (Homo sapiens, LS174T, read-out: IC50 in cell proliferation assay): 11.6 µM
IC50 (Homo sapiens, LS-411N, read-out: IC50 in cell proliferation assay): 23 µM
IC50 [3]: 0.411 µM
IC50 (Homo sapiens, MDA-MB-468, read-out: IC50 in cell proliferation assay): 1.04 µM
IC50 [4]: 0.426 µM
IC50 (Homo sapiens, MOLT-4, read-out: IC50 in cell proliferation assay): 1.88 µM
IC50 [5]: 1.01 µM
IC50 (Homo sapiens, MeWo, read-out: IC50 in cell proliferation assay): 29.1 µM
IC50 (Homo sapiens, NCCIT, read-out: IC50 in cell proliferation assay): 5.1 µM
IC50 (Homo sapiens, NCI-H82, read-out: IC50 in cell proliferation assay): 18.4 µM
IC50 (Homo sapiens, NCI-H661, read-out: IC50 in cell proliferation assay): 0.123 µM
IC50 (Homo sapiens, NCI-H716, read-out: IC50 in cell proliferation assay): 1.3 µM
IC50 (Homo sapiens, NCI-H1650, read-out: IC50 in cell proliferation assay): 0.11 µM
IC50 (Homo sapiens, NCI-H1975, read-out: IC50 in cell proliferation assay): 0.576 µM
IC50 (Homo sapiens, NCI-H2228, read-out: IC50 in cell proliferation assay): 29.9 µM
IC50 (Homo sapiens, OVCAR-3, read-out: IC50 in cell proliferation assay): 0.2 µM
IC50 (Homo sapiens, PFSK-1, read-out: IC50 in cell proliferation assay): 25.6 µM
IC50 (Homo sapiens, RL95-2, read-out: IC50 in cell proliferation assay): 0.032 µM
IC50 (Homo sapiens, RPMI-7951, read-out: IC50 in cell proliferation assay): 26.9 µM
IC50 (Homo sapiens, Rec1, read-out: IC50 in cell proliferation assay): 0.000511 µM
IC50 (Homo sapiens, SK-BR-3, read-out: IC50 in cell proliferation assay): 0.011 µM
IC50 (Homo sapiens, SK-N-MC, read-out: IC50 in cell proliferation assay): 1.52 µM
IC50 [6]: 26.3 µM
IC50 (Homo sapiens, SNU-5, read-out: IC50 in cell proliferation assay): 17.6 µM
IC50 (Homo sapiens, SNU-C2B, read-out: IC50 in cell proliferation assay): 0.3 µM
IC50 (Homo sapiens, SU-DHL-6, read-out: IC50 in cell proliferation assay): 0.012 µM
IC50 (Homo sapiens, SUP-T1, read-out: IC50 in cell proliferation assay): 1.31 µM
IC50 (Homo sapiens, SW48, read-out: IC50 in cell proliferation assay): 0.021 µM
IC50 (Homo sapiens, SW780, read-out: IC50 in cell proliferation assay): 18.7 µM
IC50 (Homo sapiens, T98G, read-out: IC50 in cell proliferation assay): 20.6 µM
IC50 (Homo sapiens, TCC-SUP, read-out: IC50 in cell proliferation assay): 18.1 µM
IC50 (Homo sapiens, U2OS, read-out: IC50 in cell proliferation assay): 10.1 µM
IC50 (Homo sapiens, U-118-MG, read-out: IC50 in cell proliferation assay): 23.3 µM
IC50 (L-82, read-out: IC50 in cell proliferation assay): 17.7 µM
IC50 (Rh30, read-out: IC50 in cell proliferation assay): 25.7 µM

CO[C@@H]1[C@H](N(C)C(=O)c2ccccc2)C[C@H]2O[C@]1(C)n1c3ccccc3c3c4c(c5c6ccccc6n2c5c31)C(=O)NC4 [midostaurin]
IC50 [1]: 0.334 µM
IC50 [2]: 0.32 µM
IC50 [3]: 7.64 µM
IC50 [4]: 0.014 µM
IC50 [5]: 0.015 µM
IC50 [6]: 0.326 µM
